Measurements reported in publication PMC11714206, “Massively Parallel Screening of Toll/Interleukin‐1 Receptor (TIR)‐Derived Peptides Reveals Multiple Toll‐Like Receptors (TLRs)‐Targeting Immunomodulatory Peptides” (Advanced Science, 2024).
Each block holds one sequence with its values, some of them ahead of it.

Target: T1, MyD88^TIR (Homo sapiens, UniProt Q99836)
T1 construct: MyD88 (residues 148–296); 6xHis; made in house; host or cells: E. coli BL21 (DE3)
Experiment: T‐Surf phage library (P8 and P3) selection against MyD88^TIR, four rounds, NGS read counts
Type: binding
Details: for Population: 4th round of selection against MyD88 TIR, share of NGS reads; for P3_MyD88 Rank (after) / P3_MyD88 Rank (before): P3 library; for P8_MyD88 Rank (after) / P8_MyD88 Rank (before): P8 library
In short: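 Coat TIR domain 5 µg mL^−1 overnight; block 0.2% BSA/PBS 1 h, 4 °C; add phage library 1 h, RT; wash ×4 PBS/0.5% Tween‐20; elute 100 mM HCl, neutralize Tris; amplify in TG1, PEG‐precipitate. Repeat to round 4; barcode PCR, NovaSeq, count reads.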

[1] = P8_MyD88: rank by NGS read count after grouping
[2] = P8_MyD88: rank by NGS read count before grouping
[3] = P8_MyD88: rank by count after grouping
[4] = P8_MyD88: rank by count before grouping
[5] = P3_MyD88 pool: P3 T-Surf phage library
[6] = selection against MyD88 TIR, rank by count after grouping
[7] = selection against MyD88 TIR, rank by count before grouping
[8] = selection against MyD88, rank after grouping
[9] = selection against MyD88, rank before grouping
[10] = P8_MyD88 pool: P8 T-Surf phage library
[11] = selection against MyD88, rank by count after grouping
[12] = selection against MyD88, rank by count before grouping
[13] = P3_MyD88: rank by count after grouping
[14] = P3_MyD88: rank by count before grouping
[15] = 4R selection against MyD88, rank after grouping
[16] = 4R selection against MyD88, rank before grouping

T1 sequence (Q99836 148-296): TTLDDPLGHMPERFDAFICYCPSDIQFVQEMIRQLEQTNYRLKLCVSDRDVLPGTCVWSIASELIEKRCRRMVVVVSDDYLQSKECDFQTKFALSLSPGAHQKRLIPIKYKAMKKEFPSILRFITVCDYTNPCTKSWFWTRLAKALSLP

Sequence: ELDFSHFWLFDGQAGGAA
Rank (after) [1]: 917 | Rank (before) [2]: 3182

Sequence: YPQDLQWLYERLGSLI
Rank (after) [1]: 892 | Rank (before) [2]: 2104

Sequence: SSLREGLWRLLELSKR
P3_MyD88 Rank (after) [6]: 209 | P3_MyD88 Rank (before) [7]: 3257

Sequence: DSLFWDRLLYSL
Population [10]: 0.00732%

Sequence: HLLKEFYKKQITAFKD
P3_MyD88 Rank (after) [6]: 194 | P3_MyD88 Rank (before) [7]: 2773

Sequence: DFLNWFIAPNSTVIEN
Rank (after) [3]: 457 | Rank (before) [4]: 2364

Sequence: LKVEAGVRRWKKRAN
Rank (after) [13]: 114 | Rank (before) [14]: 1074

Sequence: MNWCMCGAAKRIAWW
Rank (after) [13]: 170 | Rank (before) [14]: 1156

Sequence: PQAPEWSYERLVSLIL
Rank (after) [1]: 954 | Rank (before) [2]: 3417

Sequence: ELDFSHFWLFEAGGDA
Population [10]: 0.02%

Sequence: WPEDYQDIGWFLDNLS
P8_MyD88 Rank (after) [6]: 202 | P8_MyD88 Rank (before) [7]: 275

Sequence: YLKVESWRQALEKAGKL
P3_MyD88 Rank (after) [6]: 268 | P3_MyD88 Rank (before) [7]: 864

Sequence: YYLDPSHLRKQSGW
P3_MyD88 Rank (after) [11]: 720 | P3_MyD88 Rank (before) [12]: 1453

Sequence: QDLEQFYERLISRILQ
Rank (after) [3]: 113 | Rank (before) [4]: 121 | Population [10]: 0.0181%

Sequence: PRDLEWFYEHLVSLIL
P8_MyD88 Rank (after) [11]: 736 | P8_MyD88 Rank (before) [12]: 3409

Sequence: WAQEQDGFWVRLIEAL
Rank (after) [3]: 449 | Rank (before) [4]: 878

Sequence: LIRAPSVHDFRGFVGI
P3_MyD88 Rank (after) [15]: 672 | P3_MyD88 Rank (before) [16]: 2369

Sequence: SELRVVDDGSVSPRET
P3_MyD88 Rank (after) [11]: 741 | P3_MyD88 Rank (before) [12]: 3045

Sequence: WALDELLKFCMRMKP
P8_MyD88 Rank (after) [8]: 520 | P8_MyD88 Rank (before) [9]: 1471

Sequence: LGYHWIDWEYFEGIAD
Rank (after) [1]: 928 | Rank (before) [2]: 3268

Sequence: IDDDHLTYLVRLLYSLHVTE
Rank (after) [1]: 895 | Rank (before) [2]: 3629

Sequence: WTLNELQTILNILDIG
P8_MyD88 Rank (after) [15]: 656 | P8_MyD88 Rank (before) [16]: 1656

Sequence: DPQDLDCFYERLVSLL
Rank (after) [3]: 169 | Rank (before) [4]: 1082

Sequence: LGYQWNEWEYLVGIEE
P8_MyD88 Rank (after) [8]: 538 | P8_MyD88 Rank (before) [9]: 3327

Sequence: RFWESQRYMKPNVSHT
P3_MyD88 Rank (after) [11]: 708 | P3_MyD88 Rank (before) [12]: 2552

Sequence: LNWGDPYFWSKLRYAM
Population [5]: 0.00291%

Now from value to sequence:

Rank (after) [3]: 434 | Rank (before) [4]: 1060
Sequence: DYASSTWWLRELLYA

Population [5]: 0.00291%
Sequence: LVAHEISKKKKIFATI

P8_MyD88 Rank (after) [8]: 496 | P8_MyD88 Rank (before) [9]: 3852
Sequence: NYASSTFALNELHYILRFI

P8_MyD88 Rank (after) [6]: 286 | P8_MyD88 Rank (before) [7]: 560
Sequence: DPHQHQAFWDRLWEKL

Rank (after) [1]: 920 | Rank (before) [2]: 1639
Sequence: WDCASNMEQFWDLPYY

Rank (after) [3]: 388 | Rank (before) [4]: 1856
Sequence: YASSSWYLDALVQILHARELF

P8_MyD88 Rank (after) [11]: 757 | P8_MyD88 Rank (before) [12]: 3049
Sequence: DHHLDLPRGKAIKPEILG

Rank (after) [1]: 891 | Rank (before) [2]: 2486
Sequence: DWEWDYRLPNLEGPPG

P3_MyD88 Rank (after) [15]: 664 | P3_MyD88 Rank (before) [16]: 2090
Sequence: DTKLKEGDCVPPELLR

P8_MyD88 Rank (after) [6]: 236 | P8_MyD88 Rank (before) [7]: 467
Sequence: DPQDLDWFYERLLSR

Rank (after) [13]: 177 | Rank (before) [14]: 1886
Sequence: AVGKETNKIQTPLKNA

Rank (after) [13]: 95 | Rank (before) [14]: 278
Sequence: YAFTGHLHHALRLNKIETF

P3_MyD88 Rank (after) [15]: 600 | P3_MyD88 Rank (before) [16]: 3188
Sequence: SSFREGLWRLMALIKK

Rank (after) [13]: 159 | Rank (before) [14]: 2531
Sequence: LKGGDPYFWSKLRYTM

P8_MyD88 Rank (after) [15]: 662 | P8_MyD88 Rank (before) [16]: 2790
Sequence: DPQDLDWFYERREPA

Rank (after) [3]: 415 | Rank (before) [4]: 1464
Sequence: WALDELLQILNAREMF

P3_MyD88 Rank (after) [8]: 565 | P3_MyD88 Rank (before) [9]: 3262
Sequence: SSCREGLWSLLELSKK

P8_MyD88 Rank (after) [15]: 611 | P8_MyD88 Rank (before) [16]: 2721
Sequence: DPQDLGCFYERLVSLF

Population [5]: 0.0032%
Sequence: SSSREGLWRLLELSKK

P3_MyD88 Rank (after) [11]: 715 | P3_MyD88 Rank (before) [12]: 3278
Sequence: SRFREGLWRLLKLSKK

P8_MyD88 Rank (after) [11]: 766 | P8_MyD88 Rank (before) [12]: 1477
Sequence: WALDELLKILCANKTM

P8_MyD88 Rank (after) [11]: 742 | P8_MyD88 Rank (before) [12]: 2138
Sequence: YKLALHFRDWLLGAYI

P8_MyD88 Rank (after) [6]: 204 | P8_MyD88 Rank (before) [7]: 306
Sequence: DWVYNELIAHLENTEH

P3_MyD88 Rank (after) [15]: 662 | P3_MyD88 Rank (before) [16]: 3685
Sequence: KEPENYRFALHERDFP
